Experimental data reported in ChEMBL document CHEMBL1201862, “PubChem BioAssay data set” (2004).
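Values below derive from 48-hour exposures of cells grown in 96-well plates, with endpoints linearly interpolated between the two concentrations bracketing the appropriate inhibition level. The concentration for 50% growth inhibition is given as GI50.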 Calls of active or inactive are those of the source. No stated cut-off is given here; in the data, active = GI50 up to about 1.1 µM and inactive = higher.

Key:
Assay in all cases: growth of human tumour cells (NCI), 48 h
A549 = test system: A549
CAKI-1 = test system: CAKI-1
EKVX = test system: EKVX
HCC 2998 = test system: HCC 2998
HCT-116 = test system: HCT-116
Hs-578T = test system: Hs-578T
M14 = test system: M14
MDA-MB-231 = test system: MDA-MB-231
MDA-MB-435 = test system: MDA-MB-435
MDA-N = test system: MDA-N
NCI-H23 = test system: NCI-H23
OVCAR-3 = test system: OVCAR-3
OVCAR-8 = test system: OVCAR-8
SF-268 = test system: SF-268
SK-MEL-2 = test system: SK-MEL-2
SNB-75 = test system: SNB-75
SW-620 = test system: SW-620
UO-31 = test system: UO-31
BT-549 = test system: BT-549

Measured: GI50

CCCNC(=S)N/N=C1\C(=O)Nc2ccccc21
inactive: A549 > 100 µM | CAKI-1 > 100 µM | EKVX > 100 µM | HCC 2998 > 100 µM | HCT-116 > 100 µM | Hs-578T > 100 µM | M14 > 100 µM | MDA-MB-231 > 100 µM | MDA-MB-435 > 100 µM | MDA-N > 100 µM | NCI-H23 > 100 µM | OVCAR-3 > 100 µM | OVCAR-8 > 100 µM | SF-268 > 100 µM | SK-MEL-2 > 100 µM | SNB-75 > 100 µM | SW-620 > 100 µM | UO-31 > 100 µM

O=C(O)c1ccc2nc(-c3ccccn3)c(-c3ccccn3)nc2c1
inactive: BT-549 > 100 µM | CAKI-1 > 100 µM | EKVX > 100 µM | HCC 2998 > 100 µM | HCT-116 > 100 µM | Hs-578T > 100 µM | M14 > 100 µM | MDA-MB-231 > 100 µM | MDA-MB-435 > 100 µM | NCI-H23 > 100 µM | OVCAR-8 > 100 µM | SF-268 > 100 µM | SK-MEL-2 > 100 µM | SNB-75 > 100 µM | SW-620 > 100 µM | UO-31 > 100 µM

NNC(=O)Cn1ccnn1
inactive: A549 > 100 µM | BT-549 > 100 µM | CAKI-1 > 100 µM | EKVX > 100 µM | HCC 2998 > 100 µM | M14 > 100 µM | MDA-MB-231 > 100 µM | MDA-MB-435 > 100 µM | NCI-H23 > 100 µM | OVCAR-8 > 100 µM | SF-268 > 100 µM | SK-MEL-2 > 100 µM | SNB-75 > 100 µM | SW-620 > 100 µM

O=C(NCCCCNCCCNC(=O)c1ccccc1)c1ccccc1
inactive: A549 > 100 µM | BT-549 > 100 µM | EKVX > 100 µM | HCC 2998 > 100 µM | HCT-116 > 100 µM | Hs-578T > 100 µM | M14 > 100 µM | MDA-MB-231 > 100 µM | MDA-MB-435 > 100 µM | NCI-H23 > 100 µM | OVCAR-3 > 100 µM | OVCAR-8 > 100 µM | SF-268 > 100 µM | SK-MEL-2 > 100 µM | SNB-75 > 100 µM | SW-620 > 100 µM | UO-31 > 100 µM

CC(C)(C)C1=C(Br)C(C(C)(C)C)OP1(=O)O (stereo not drawn)
inactive: A549 > 100 µM | CAKI-1 > 100 µM | EKVX > 100 µM | HCC 2998 > 100 µM | HCT-116 > 100 µM | Hs-578T > 100 µM | M14 > 100 µM | MDA-MB-435 > 100 µM | MDA-N > 100 µM | NCI-H23 > 100 µM | OVCAR-3 > 100 µM | OVCAR-8 > 100 µM | SF-268 > 100 µM | SK-MEL-2 > 100 µM | SNB-75 > 100 µM | UO-31 > 100 µM

Nc1nnc2n1C(=O)C(C1(C3=Nc4nnc(N)n4C3=O)Cc3ccccc3C1=O)=N2
inactive: A549 43.5 µM | CAKI-1 > 100 µM | EKVX > 100 µM | HCC 2998 > 100 µM | HCT-116 > 100 µM | Hs-578T > 100 µM | M14 > 100 µM | MDA-MB-231 31.8 µM | MDA-MB-435 > 100 µM | MDA-N > 100 µM | NCI-H23 > 100 µM | OVCAR-3 > 100 µM | OVCAR-8 > 100 µM | SF-268 > 100 µM | SNB-75 > 100 µM | SW-620 > 100 µM | UO-31 > 100 µM
